Laboratory results: US7446199B2, “Compositions useful as inhibitors of protein kinases” (Vertex Pharmaceuticals Incorporated, priority 2003, dated 2008)
pKi: −log10 of the molar value. Values belong to the compound of their own block, whether it stands above or below them.

Legend:
GSK-3β, (AA 1-420) = GSK-3β, (AA 1-420) (Homo sapiens, UniProt P49841); experiment: GSK-3 inhibition assay, coupled enzyme system; assay type: biochemical; conditions: 20 μM ATP, 300 μM peptide, 20 nM GSK-3b, 30° C.; read-out: Ki values (GSK3)
How it was run: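 Pyruvate kinase/lactate dehydrogenase-coupled NADH assay with 20 nM enzyme, 20 μM ATP and 300 μM peptide in HEPES pH 7.5, 1.5% DMSO, 30° C. Compound (0.002–30 μM, 12-point) preincubated 10 min before ATP start; rates over 10 min gave Ki.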

c-Met = c-Met (Homo sapiens, UniProt P08581); experiment: Ki determination for the inhibition of c-Met, coupled enzyme system; assay type: biochemical; conditions: 200 μM ATP, 10 μM polyGluTyr, 80 nM c-Met, 30° C.
How it was run: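 Coupled pyruvate kinase/lactate dehydrogenase NADH assay with 80 nM c-Met, 200 μM ATP, 10 μM polyGluTyr in pH 7.5 HEPES, 1.5% DMSO at 30° C. Compound (0.006–12.5 μM final, 12-point) preincubated 10 min; ATP started reaction, rates read over 10 min; Ki derived from rate versus inhibitor concentration.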

Sequence of c-Met (P08581 25-1390): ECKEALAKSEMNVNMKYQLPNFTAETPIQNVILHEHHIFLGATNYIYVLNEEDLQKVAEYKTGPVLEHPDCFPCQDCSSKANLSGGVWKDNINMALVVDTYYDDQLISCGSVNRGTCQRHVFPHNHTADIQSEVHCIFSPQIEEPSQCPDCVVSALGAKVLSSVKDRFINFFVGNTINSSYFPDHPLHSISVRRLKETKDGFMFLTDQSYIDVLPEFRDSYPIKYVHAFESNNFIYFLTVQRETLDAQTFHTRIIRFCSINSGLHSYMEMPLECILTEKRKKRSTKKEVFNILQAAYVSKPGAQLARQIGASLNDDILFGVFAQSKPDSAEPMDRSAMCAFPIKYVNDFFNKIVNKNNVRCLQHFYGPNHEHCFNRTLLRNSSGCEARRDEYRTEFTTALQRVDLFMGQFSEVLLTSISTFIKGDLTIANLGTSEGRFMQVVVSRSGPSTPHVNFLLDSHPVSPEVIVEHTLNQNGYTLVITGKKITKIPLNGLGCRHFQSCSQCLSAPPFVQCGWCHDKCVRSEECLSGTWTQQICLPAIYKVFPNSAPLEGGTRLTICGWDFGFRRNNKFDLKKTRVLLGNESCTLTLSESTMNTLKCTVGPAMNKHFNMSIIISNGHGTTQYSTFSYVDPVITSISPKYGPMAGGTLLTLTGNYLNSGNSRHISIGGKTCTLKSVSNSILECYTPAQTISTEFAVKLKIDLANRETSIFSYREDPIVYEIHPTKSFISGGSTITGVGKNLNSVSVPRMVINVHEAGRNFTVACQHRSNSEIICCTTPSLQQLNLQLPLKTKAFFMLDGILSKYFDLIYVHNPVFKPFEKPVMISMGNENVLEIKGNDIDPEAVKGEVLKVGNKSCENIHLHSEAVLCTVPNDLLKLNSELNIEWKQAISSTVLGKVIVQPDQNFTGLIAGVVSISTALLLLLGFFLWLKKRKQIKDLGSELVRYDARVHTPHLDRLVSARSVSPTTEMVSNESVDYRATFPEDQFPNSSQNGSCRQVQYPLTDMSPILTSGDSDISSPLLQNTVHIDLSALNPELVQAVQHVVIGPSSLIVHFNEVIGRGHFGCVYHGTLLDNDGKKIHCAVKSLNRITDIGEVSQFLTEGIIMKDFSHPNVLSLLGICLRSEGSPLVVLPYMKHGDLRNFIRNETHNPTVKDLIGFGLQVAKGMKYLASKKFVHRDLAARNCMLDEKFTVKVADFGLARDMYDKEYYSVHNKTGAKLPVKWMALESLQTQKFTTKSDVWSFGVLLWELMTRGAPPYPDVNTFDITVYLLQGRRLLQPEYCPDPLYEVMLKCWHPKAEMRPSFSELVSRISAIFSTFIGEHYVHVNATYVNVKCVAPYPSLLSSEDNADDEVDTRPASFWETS
Sequence of GSK-3β, (AA 1-420) (P49841 whole entry, the tested form may be a part): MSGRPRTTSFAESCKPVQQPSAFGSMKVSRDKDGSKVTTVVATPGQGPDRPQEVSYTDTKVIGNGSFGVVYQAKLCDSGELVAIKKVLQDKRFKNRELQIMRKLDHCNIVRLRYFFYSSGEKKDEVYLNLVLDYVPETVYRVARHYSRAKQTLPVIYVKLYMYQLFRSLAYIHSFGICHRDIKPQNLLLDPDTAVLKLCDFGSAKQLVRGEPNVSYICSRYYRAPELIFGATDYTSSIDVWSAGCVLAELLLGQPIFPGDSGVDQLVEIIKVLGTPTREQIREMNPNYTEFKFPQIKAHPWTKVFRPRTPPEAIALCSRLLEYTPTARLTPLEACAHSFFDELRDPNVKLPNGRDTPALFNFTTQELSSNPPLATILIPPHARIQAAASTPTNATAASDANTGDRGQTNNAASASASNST

pKi (c-Met): 6.00 to 6.70
SMILES: Fc1cccc(-c2cnoc2-c2n[nH]c3ncccc23)c1F [Compound 31, 3-(4-(2,3-difluorophenyl)isoxazol-5-yl)-1H-pyrazolo[3,4-b]pyridine]

pKi (GSK-3β, (AA 1-420)): 4.90 to 6.00
pKi (c-Met): 6.00 to 6.70
SMILES: c1ccc(-c2cnoc2-c2c[nH]c3ncccc23)cc1 [Compound 35, 3-[4-Phenyl-isoxazol-5-yl]-1H-pyrrolo[2,3-b]pyridine]

pKi (GSK-3β, (AA 1-420)): 6.00 to 6.70
pKi (c-Met): > 6.70
SMILES: Fc1cccc(-c2cnoc2-c2c[nH]c3ncc(Cl)cc23)c1F [Compound 44, 3-[4-(2,3-Difluoro-phenyl)-isoxazol-5-yl]-5-chloro-1H-pyrrolo[2,3-b]pyridine]

pKi (GSK-3β, (AA 1-420)): 4.90 to 6.00
pKi (c-Met): > 6.70
SMILES: Cc1cnc2[nH]cc(-c3oncc3-c3cccc(F)c3F)c2c1 [Compound 46, 3-[4-(2,3-Difluoro-phenyl)-isoxazol-5-yl]-5-methyl-1H-pyrrolo[2,3-b]pyridine]

pKi (GSK-3β, (AA 1-420)): 4.90 to 6.00
pKi (c-Met): 6.00 to 6.70
SMILES: OCc1cnc2[nH]cc(-c3oncc3-c3cccc(F)c3F)c2c1 [Compound 55, {3-[4-(2,3-Difluoro-phenyl)-isoxazol-5-yl]-1H-pyrrolo[2,3-b]pyridin-5-yl}-methanol]

pKi (GSK-3β, (AA 1-420)): 4.90 to 6.00
pKi (c-Met): 6.00 to 6.70
SMILES: Fc1cccc(-c2cnoc2-c2c[nH]c3nc(Cl)c(-c4ccncc4)cc23)c1F [Compound 103, 6-Chloro-3-[4-(2,3-difluoro-phenyl)-isoxazol-5-yl]-5-pyridin-4-yl-1H-pyrrolo[2,3-b]pyridine]

pKi (GSK-3β, (AA 1-420)): 4.90 to 6.00
pKi (c-Met): 6.00 to 6.70
SMILES: O=C(c1cnc2[nH]cc(-c3oncc3-c3cccc(F)c3F)c2c1)N1CCCC1 [Compound 104, {3-[4-(2,3-Difluoro-phenyl)-isoxazol-5-yl]-1H-pyrrolo[2,3-b]pyridin-5-yl}-pyrrolidin-1-yl-methanone]

pKi (GSK-3β, (AA 1-420)): 4.90 to 6.00
pKi (c-Met): 6.00 to 6.70
SMILES: COc1cnc2[nH]cc(-c3nncn3-c3cccc(F)c3F)c2c1 [Compound 108, 3-[4-(2,3-Difluoro-phenyl)-4H-[1,2,4]triazol-3-yl]-5-methoxy-1H-pyrrolo[2,3-b]pyridine]

pKi (GSK-3β, (AA 1-420)): 4.90 to 6.00
pKi (c-Met): 6.00 to 6.70
SMILES: Fc1cccc(-n2cnnc2-c2c[nH]c3ncc(-c4ccc(N5CCNCC5)nc4)cc23)c1F [Compound 111, 3-[4-(2,3-Difluoro-phenyl)-4H-[1,2,4]triazol-3-yl]-5-(6-piperazin-1-yl-pyridin-3-yl)-1H-pyrrolo[2,3-b]pyridine]

pKi (GSK-3β, (AA 1-420)): 6.00 to 6.70
pKi (c-Met): 6.00 to 6.70
SMILES: Fc1cccc(-c2cnoc2-c2c[nH]c3ncc(CCn4cncn4)cc23)c1F [Compound 132, 3-[4-(2,3-Difluoro-phenyl)-isoxazol-5-yl]-5-(2-[1,2,4]triazol-1-yl-ethyl)-1H-pyrrolo[2,3-b]pyridine]

pKi (GSK-3β, (AA 1-420)): > 6.70
pKi (c-Met): > 6.70
SMILES: CN(C)C1CCC(c2cnc3[nH]cc(-c4oncc4-c4cccc(F)c4F)c3c2)CC1 (stereo not drawn) [Compound 141, (4-{3-[4-(2,3-Difluoro-phenyl)-isoxazol-5-yl]-1H-pyrrolo[2,3-b]pyridin-5-yl}-cyclohexyl)-dimethylamine]

The remaining lines, values behind:

SMILES: CN1CCN(C(=O)[C@H]2C[C@@H]2c2cnc3[nH]cc(-c4oncc4-c4cccc(F)c4F)c3c2)CC1 (relative stereo) [Compound 142, trans-(2-{3-[4-(2,3-Difluoro-phenyl)-isoxazol-5-yl]-1H-pyrrolo[2,3-b]pyridin-5-yl}-cyclopropyl)-(4-methyl-piperazin-1-yl)-methanone]
pKi (GSK-3β, (AA 1-420)): 6.00 to 6.70
pKi (c-Met): > 6.70

SMILES: Fc1cccc(-c2cnoc2-c2c[nH]c3ccc(-c4ccncc4)cc23)c1F [Compound 34, 3-[4-(2,3-Difluoro-phenyl)-isoxazol-5-yl]-5-pyridin-4-yl-1H-indole]
pKi (GSK-3β, (AA 1-420)): 4.90 to 6.00

SMILES: Fc1cc(F)c(F)c(-c2cnoc2-c2c[nH]c3ncccc23)c1 [Compound 39, 3-[4-(2,3,5-Trifluoro-phenyl)-isoxazol-5-yl]-1H-pyrrolo [2,3-b]pyridine]
pKi (GSK-3β, (AA 1-420)): 4.90 to 6.00
pKi (c-Met): 6.00 to 6.70

SMILES: Fc1ccc(F)c(-c2cnoc2-c2c[nH]c3ncccc23)c1F [Compound 41, 3-[4-(2,3,6-Trifluoro-phenyl)-isoxazol-5-yl]-1H-pyrrolo [2,3-b]pyridine]
pKi (GSK-3β, (AA 1-420)): 4.90 to 6.00
pKi (c-Met): 6.00 to 6.70

SMILES: Fc1cnc2[nH]cc(-c3oncc3-c3cccc(F)c3F)c2c1 [Compound 45, 3-[4-(2,3-Difluoro-phenyl)-isoxazol-5-yl]-5-fluoro-1H-pyrrolo[2,3-b]pyridine]
pKi (GSK-3β, (AA 1-420)): 4.90 to 6.00
pKi (c-Met): 6.00 to 6.70

SMILES: NC(=O)c1ccc(-c2cnc3[nH]cc(-c4oncc4-c4cccc(F)c4F)c3c2)cc1 [Compound 153]
pKi (GSK-3β, (AA 1-420)): 4.90 to 6.00
pKi (c-Met): > 6.70

SMILES: OB(O)c1cnc2[nH]cc(-c3oncc3-c3cccc(F)c3F)c2c1 [Compound 154]
pKi (GSK-3β, (AA 1-420)): 4.90 to 6.00
pKi (c-Met): > 6.70

SMILES: C[N+]1(C)CCN(c2ccc(-c3cnc4[nH]cc(-c5oncc5-c5cccc(F)c5F)c4c3)cc2)CC1 [Compound 155]
pKi (GSK-3β, (AA 1-420)): > 6.70
pKi (c-Met): > 6.70
